We go through one substance from patent publication US10596110B2, “Residence structures and related methods” (Massachusetts Institute of Technology, priority 2014, dated 2020).

This data set can be described thus: Stability of drugs in acidic conditions, in solution or in PCL structures (HPLC). The format is physicochemical. As to conditions: IAW, pH=1, 37° C. On the procedure:
Stability of drugs in the gastric environment was evaluated using HPLC and LC-MS/MS analysis. Hydrophilic drugs were dissolved in simulated gastric fluid (SGF, 0.2% (w/v) NaCl, 0.83% (v/v) HCL, pH=1) in centrifuge tubes. Hydrophobic drugs were dissolved in IAW (isopropanol 70%, acetonitrile 20%, water 10%) with pH adjusted to 1 using HCL. As a control, drugs were dissolved in the same solvents with pH adjusted to 6.0 (using IM NaOH). After vortexing for 1 min and sonication for 10 min, tubes were placed in a shaking incubator (150 rpm, 37° C.). Samples were collected at defined time points for up to two weeks and analyzed by HPLC and LC-MS/MS to quantify the stability of drugs.
Stability of drugs loaded into PCL based delivery matrices were also studied. Loading of drugs is described below in Examples 16 and 17. Drug loaded structures were kept at acidic conditions (pH=1, 37° C.) and at defined intervals, drug was extracted from the PCL matrix and analyzed by HPLC and/or LC-MS/MS. In order to extract drugs, structures were sonicated in SGF (hydrophilic drugs) or isopropanol (hydrophobic drugs) for 10 min. Fresh drug in SGF or Isopropanol was prepared immediately before analysis as controls.
Ivermectin (IVM) loaded structures, shown in FIG. 16B, were placed in SGF+RH solution (pH=1, 37° C.) for 72 h. Drug was extracted by sonicating the structure in isopropanol for 10 min.

Consider Ivermectin, for which the “Stability in acidic conditions (in solution)” value was “unstable”.
